Results from paper PMC6150246, “Design, Synthesis and Preliminary Biological Evaluation of Novel Benzyl Sulfoxide 2-Indolinone Derivatives as Anticancer Agents” (Molecules : A Journal of Synthetic Chemistry and Natural …, 2017).

Tested on: tyrosine kinase
Assay: Tyrosine kinase inhibitory activity assay (self-made ELISA kit)
Format: biochemical
Settings: Indo 5 as reference
Method: The 16 designed compounds were first evaluated for tyrosine kinase inhibitory activity using ELISA assay. Indo 5 was used as a reference compound. The kit was self-made and is a very effective and economical method for preliminary tyrosine kinase inhibitory activity evaluation.
The tyrosine kinase inhibitory activity assay was performed as described in the literature. Details of the experimental procedures are presented in Supplementary Materials associated with this article. The IC50 was calculated using GraphPad Prism Software (GraphPad Prism 5, La Jolla, CA, USA). For each concentration, at least three wells were performed to calculate the average parameter.
100μL to each well. The plate was covered with its lid, and incubated at 4℃ overnight (10-12 hours). Then it was washed with 200μL elution buffer once, and dried at 37℃ for 2 h. After that, it was washed with 10mM PBS once, dried at room temperature, and then stored at 4℃ […]
2.1.5. Groups: Blank control: 60μL 1×tyrosine kinase buffer + 50μL 1×tyrosine kinase buffer containing ATP; Negative control: 10μL 1×tyrosine kinase buffer + 50μL 1×tyrosine kinase buffer containing tissue extract + 50μL 1×tyrosine kinase buffer containing ATP; Positive control: 10μL 1×tyrosine kinase buffer containing L029 + 50μL 1×tyrosine kinase buffer containing tissue extract + 50μL 1×tyrosine kinase buffer containing ATP; Vehicle control: 10μL 1×tyrosine kinase buffer containing DMSO + 50μL 1×tyrosine kinase buffer containing tissue extract + 50μL 1×tyrosine kinase buffer containing ATP; Compounds to be screened: 10μL 1×tyrosine kinase buffer containing compounds to be tested + 50μL 1× tyrosine kinase buffer containing tissue extract + 50μL 1×tyrosine kinase buffer containing ATP. (First, L029 and the compounds were allowed to interact with the tyrosine kinase tissue extract at room temperature for 10 min in advance, and did the same to the Blank control and the Vehicle control, then 50μL 1×tyrosine kinase buffer containing ATP was added to […]
2.1.6. Tyrosine kinase inhibitory activity assay: 1×tyrosine kinase buffer was prepared by evenly mixing 1 mL 10× tyrosine kinase buffer with 9 mL DDW. The tissue extract was diluted with 1×tyrosine kinase buffer appropriately, mixed with it gently and evenly, and placed on ice. ATP stock solution was mixed with 1×tyrosine kinase buffer at the final concentration of 3mM , and placed on ice. The microplate was added in respective wells with the groups formulated as above, covered with the lid, and incubated at 37℃ for 30 min. The microplate was washed with 200μL elution buffer and tapped until the residual buffer was removed, and this procedure was repeated for five times. To each well, 100μL antibody diluent (antibody elution buffer diluted at a ratio of 1:2000) was added. The microplate was covered with the lid, and incubated at room temperature for 30 min. OPD solution was prepared by addition of 4 mg OPD into a mixture of 4.86 mL 0.1 mol/L citric acid solution and 5.14 mL 0.2 mol/L Na2HPO4 solution, followed by addition of 50μL 30% H202 to allow for complete dissolution, and then was protected from light. The antibody solution was […]
removed. The microplate was washed with 200μL elution buffer and tapped until the residual buffer was removed, and this procedure was repeated for five times. 100μL freshly prepared OPD was added, and reacted at room temperature light tight for precisely 7 min. Negative […]
100μL 2.5 N H2SO4 was added to terminate the reaction. OD
2.1.7. Sample screening: Samples were screened preliminarily by using triplicate assay. The effect of the samples on tyrosine kinase inhibitory activity was tested, and the inhibition rate was calculated. Inhibition rate (%)=(ODnegative control – ODsample) / (ODnegative control* – ODblank) × 100%; *While calculating inhibition rate of positive drugs, ODnegative control in the equation was replaced with ODvehicle control to exclude the influence of DMSO on tyrosine kinase activity. […]
2. S. Praveen Kumar, Jiri Gut, Rita C. […]

tyrosine kinase inhibitory activity, in words	Compound
weak tyrosine inhibitory activity	Cc1ccccc1C[S+]([O-])/C=C1\C(=O)Nc2ccccc21 (stereo not shown) [Compound 6l, (Z)-3-(((2-Methylbenzyl)sulfinyl)methylene)indolin-2-one]
weak tyrosine inhibitory activity	O=C1Nc2ccc(Br)cc2/C1=C/[S+]([O-])Cc1ccccc1F (stereo not shown) [Compound 6p, (Z)-5-Bromo-3-(((2-fluorobenzyl)sulfinyl)methylene)indolin-2-one]

Same assay, conditions: tyrosine kinase tissue extract, 37 °C 30 min

IC50 [µM]	Compound
3.16 ± 0.31	O=C1Nc2ccccc2/C1=C/[S+]([O-])Cc1ccccc1 (stereo not shown) [Compound 6a, (Z)-3-((Benzylsulfinyl)methylene)indolin-2-one]
16.02 ± 0.05	Cc1ccccc1C[S+]([O-])/C=C1\C(=O)Nc2ccccc21 (stereo not shown) [Compound 6l, (Z)-3-(((2-Methylbenzyl)sulfinyl)methylene)indolin-2-one]
7.93 ± 0.2	O=C1Nc2ccc(Br)cc2/C1=C/[S+]([O-])Cc1ccccc1F (stereo not shown) [Compound 6p, (Z)-5-Bromo-3-(((2-fluorobenzyl)sulfinyl)methylene)indolin-2-one]

Tested on: human cervical carcinoma cell line HeLa
Assay: MTS cytotoxicity assay, HeLa
Format: cell-based
Settings: Homo sapiens, HeLa, 48 h treatment
From the text: (§1) To investigate the relationship between anticancer activity and tyrosine kinase inhibitory activity, these compounds were further evaluated for in vitro cytotoxicity against five cancer cell lines (human cervical carcinoma cell line HeLa, human breast carcinoma cell line MCF-7, human liver carcinoma cell line HepG2, human tongue carcinoma cell line SCC-15, and human lung carcinoma A549) using MTS assay. Indo 5 was also used as a reference compound.
(§2) The five types of human cancer cell lines (HeLa, HepG2, MCF-7, SCC-15, and A549) were cultured aseptically using Dulbecco’s modified Eagle’s medium (DMEM) supplemented with 10% (v/v) fetal bovine serum (FBS) and penicillin (100 units mL^−1)/streptomycin ([…]), at pH 7.2 and 5% CO2 humidified atmosphere at 37 °C. After attaining 80% confluence, the cells were trypsinized with 0.25 trypsin–EDTA and diluted with media to a fixed number of cells.
(§3) Cytotoxic activity was assessed using the standard MTS method by using triplicate assay. The cells were seeded into 96-well plates containing the medium at the density of 4000–6000 cells/mL (100 μL/well). The compounds were dissolved in DMSO to the concentration of 100 mM and diluted in a culture medium to the concentrations needed. After 24 h, the cultured cells were treated with concentrations of synthesized compounds (3.125 μM to 100 μM for tumor cells) for 48 h. After 48 h of incubation, the supernatant was replaced by fresh medium (100 μL/well) and 10 μL MTS reagent ([3-(4,5-dimethylthiazol-2-yl)-5-(3-carboxymethoxyphenyl)-2-(4-sulfophenyl)-2H-tetrazolium, inner salt]) was added to each well. The plate was further incubated for 3 h at 37 °C in 5% CO2. The optical absorbance in individual wells was determined at 492 nm using a microplate reader. The inhibition rates were calculated by the following formula: Inhibition rate (%) = (ODnegative control − ODsample)/(ODnegative control − ODblank) × 100%
(§4) IC50 was calculated using GraphPad Prism Software (GraphPad Prism 5, La Jolla, CA, USA). For each concentration, at least three wells were performed to calculate the average parameter.

Compound	IC50 [µM]
O=C1Nc2ccccc2/C1=C/[S+]([O-])Cc1ccccc1 (stereo not shown) [Compound 6a, (Z)-3-((Benzylsulfinyl)methylene)indolin-2-one]	11.2 ± 0.42
Cc1ccccc1C[S+]([O-])/C=C1\C(=O)Nc2ccccc21 (stereo not shown) [Compound 6l, (Z)-3-(((2-Methylbenzyl)sulfinyl)methylene)indolin-2-one]	> 100
O=C1Nc2ccc(Br)cc2/C1=C/[S+]([O-])Cc1ccccc1F (stereo not shown) [Compound 6p, (Z)-5-Bromo-3-(((2-fluorobenzyl)sulfinyl)methylene)indolin-2-one]	19.8 ± 0.25

Same assay, conditions: Indo 5 as reference

Compound	activity against the HeLa cell line, in words
O=C1Nc2ccccc2/C1=C/[S+]([O-])Cc1ccccc1 (stereo not shown) [Compound 6a, (Z)-3-((Benzylsulfinyl)methylene)indolin-2-one]	stronger activity than Indo 5

Tested on: human breast carcinoma cell line MCF-7
Assay: MTS cytotoxicity assay, MCF-7
Format: cell-based
Settings: not given
From the text: as §1, §2, §3, §4

Compound	activity against the MCF-7 cell line, in words
O=C1Nc2ccccc2/C1=C/[S+]([O-])Cc1ccccc1 (stereo not shown) [Compound 6a, (Z)-3-((Benzylsulfinyl)methylene)indolin-2-one]	good antitumor activity

Same assay, conditions: Homo sapiens, MCF7, 48 h treatment

Compound	IC50 [µM]
O=C1Nc2ccccc2/C1=C/[S+]([O-])Cc1ccccc1 (stereo not shown) [Compound 6a, (Z)-3-((Benzylsulfinyl)methylene)indolin-2-one]	35.2 ± 1.16
Cc1ccccc1C[S+]([O-])/C=C1\C(=O)Nc2ccccc21 (stereo not shown) [Compound 6l, (Z)-3-(((2-Methylbenzyl)sulfinyl)methylene)indolin-2-one]	81.6 ± 2.62
O=C1Nc2ccc(Br)cc2/C1=C/[S+]([O-])Cc1ccccc1F (stereo not shown) [Compound 6p, (Z)-5-Bromo-3-(((2-fluorobenzyl)sulfinyl)methylene)indolin-2-one]	76.4 ± 1.5

Tested on: human liver carcinoma cell line HepG2
Assay: MTS cytotoxicity assay, HepG2
Format: cell-based
Settings: Homo sapiens, HepG2, 48 h treatment
From the text: as §1, §2, §3, §4

Compound	IC50 [µM]
O=C1Nc2ccccc2/C1=C/[S+]([O-])Cc1ccccc1 (stereo not shown) [Compound 6a, (Z)-3-((Benzylsulfinyl)methylene)indolin-2-one]	52.1 ± 0.94
Cc1ccccc1C[S+]([O-])/C=C1\C(=O)Nc2ccccc21 (stereo not shown) [Compound 6l, (Z)-3-(((2-Methylbenzyl)sulfinyl)methylene)indolin-2-one]	> 100
O=C1Nc2ccc(Br)cc2/C1=C/[S+]([O-])Cc1ccccc1F (stereo not shown) [Compound 6p, (Z)-5-Bromo-3-(((2-fluorobenzyl)sulfinyl)methylene)indolin-2-one]	> 100

Tested on: human tongue carcinoma cell line SCC-15
Assay: MTS cytotoxicity assay, SCC-15
Format: cell-based
Settings: Homo sapiens, SCC-15, 48 h treatment
From the text: as §1, §2, §3, §4

Compound	IC50 [µM]
O=C1Nc2ccccc2/C1=C/[S+]([O-])Cc1ccccc1 (stereo not shown) [Compound 6a, (Z)-3-((Benzylsulfinyl)methylene)indolin-2-one]	58.9 ± 0.75
Cc1ccccc1C[S+]([O-])/C=C1\C(=O)Nc2ccccc21 (stereo not shown) [Compound 6l, (Z)-3-(((2-Methylbenzyl)sulfinyl)methylene)indolin-2-one]	> 100
O=C1Nc2ccc(Br)cc2/C1=C/[S+]([O-])Cc1ccccc1F (stereo not shown) [Compound 6p, (Z)-5-Bromo-3-(((2-fluorobenzyl)sulfinyl)methylene)indolin-2-one]	> 100

Tested on: human lung carcinoma A549
Assay: MTS cytotoxicity assay, A549
Format: cell-based
Settings: Homo sapiens, A549, 48 h treatment
From the text: as §1, §2, §3, §4

Compound	IC50 [µM]
O=C1Nc2ccccc2/C1=C/[S+]([O-])Cc1ccccc1 (stereo not shown) [Compound 6a, (Z)-3-((Benzylsulfinyl)methylene)indolin-2-one]	> 100
Cc1ccccc1C[S+]([O-])/C=C1\C(=O)Nc2ccccc21 (stereo not shown) [Compound 6l, (Z)-3-(((2-Methylbenzyl)sulfinyl)methylene)indolin-2-one]	> 100
O=C1Nc2ccc(Br)cc2/C1=C/[S+]([O-])Cc1ccccc1F (stereo not shown) [Compound 6p, (Z)-5-Bromo-3-(((2-fluorobenzyl)sulfinyl)methylene)indolin-2-one]	> 100

Tested on: not given
Assay: not given
Settings: not given

melting point [°C]	Compound
191 to 192	O=C1Nc2ccccc2/C1=C/[S+]([O-])Cc1ccccc1 (stereo not shown) [Compound 6a, (Z)-3-((Benzylsulfinyl)methylene)indolin-2-one]
198 to 199	Cc1ccccc1C[S+]([O-])/C=C1\C(=O)Nc2ccccc21 (stereo not shown) [Compound 6l, (Z)-3-(((2-Methylbenzyl)sulfinyl)methylene)indolin-2-one]
208 to 209	O=C1Nc2ccc(Br)cc2/C1=C/[S+]([O-])Cc1ccccc1F (stereo not shown) [Compound 6p, (Z)-5-Bromo-3-(((2-fluorobenzyl)sulfinyl)methylene)indolin-2-one]
